Results on twelve compounds are retold here after ChEMBL document CHEMBL1201862, “PubChem BioAssay data set” (2004).

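Compound exposure: 48 hours, 5 concentrations, 96-well plates. GI50: concentration for 50% inhibition of growth.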 Active and inactive are the calls of the source. Cut-off read from the data, not from the text of the source: active = GI50 up to about 1.1 µM and inactive = higher.

Among the test systems are SK-MEL-2; SK-MEL-28; UO-31; HL-60; HOP-62; SNB-19; HCC 2998; SN12C; OVCAR-5; Malme-3M; HT-29; HCT-15; OVCAR-4; RXF 393; OVCAR-3; IGROV-1; SK-MEL-5; CAKI-1; SF-295; OVCAR-8.
Holding throughout (assay): inhibition of tumour cell growth, NCI panel, 48 h

For `Cc1cccc(NC(N)=S)c1`, the GI50 in the assay on SK-MEL-2, in the assay with SK-MEL-28, in the assay on UO-31, with HL-60, with HOP-62 and in the assay on SNB-19 was > 100 µM (inactive) each time. In addition, the GI50 in the assay on HCC 2998 was > 100 µM (inactive); with SN12C, > 100 µM (inactive); in the assay on OVCAR-5, > 100 µM (inactive); in the assay on Malme-3M, > 100 µM (inactive); in the assay on HT-29 it was > 100 µM (inactive); with HCT-15 it was more than 100 µM. The GI50 in the assay on OVCAR-4, in the assay on RXF 393 and with OVCAR-3 was > 100 µM (inactive) each time.
For `CC12CCC(C(=O)OC1=O)C(C)(C)O2` (centres undefined), the GI50 in the assay with IGROV-1, in the assay with SK-MEL-5, with SK-MEL-2, in the assay on CAKI-1, in the assay on SF-295 and with SK-MEL-28 was > 100 µM (inactive) in each case. The GI50 with UO-31, in the assay on HOP-62, with SNB-19, in the assay on HCC 2998, in the assay on OVCAR-8 and in the assay on SN12C was > 100 µM (inactive) in each case. Also, the GI50 with OVCAR-5, with Malme-3M, in the assay on HT-29, in the assay on OVCAR-4, in the assay on RXF 393 and in the assay on OVCAR-3 was > 100 µM (inactive) throughout.
Turning to `C=CC(OC(=O)C(C)C)c1ccc(OC(=O)C(C)C)cc1` (centres undefined), the GI50 in the assay on IGROV-1 is 18.4 µM (inactive); in the assay on SK-MEL-5, 16.3 µM (inactive); in the assay on SK-MEL-2, 11.2 µM (inactive); in the assay with CAKI-1, 2.56 µM (inactive); in the assay on SF-295 it was 15.6 µM (inactive); in the assay on SK-MEL-28, 10.6 µM (inactive). The GI50 was 17.2 µM (inactive) in the assay on UO-31; 2.92 µM (inactive) in the assay on HL-60; 9.95 µM (inactive) with HOP-62; 14.9 µM (inactive) with SNB-19; 13.1 µM (inactive) in the assay with HCC 2998; 17.5 µM (inactive) with OVCAR-8. The GI50 with SN12C was 14 µM (inactive); with OVCAR-5 it was 6.5 µM (inactive); in the assay with Malme-3M, 7.57 µM (inactive); with HT-29, 11.1 µM (inactive); with HCT-15 it was 5.74 µM; in the assay with OVCAR-4, 14.8 µM (inactive). Besides, in the assay with OVCAR-3, the GI50 is 16.9 µM (inactive).
With `C/C(N)=N/OCc1nc(C)no1`, the GI50 in the assay with SK-MEL-5, in the assay with CAKI-1, in the assay on SF-295, in the assay on SK-MEL-28, in the assay on UO-31 and in the assay with HL-60 was > 100 µM (inactive) in each case. Besides, the GI50 in the assay with HOP-62, with SNB-19, in the assay with HCC 2998, in the assay with OVCAR-8, in the assay on SN12C and in the assay on HT-29 was > 100 µM (inactive) in each case. In addition, the GI50 in the assay with HCT-15 is more than 100 µM; with OVCAR-4, > 100 µM (inactive); in the assay on RXF 393, > 100 µM (inactive); with OVCAR-3, > 100 µM (inactive).
For `CCOC(=O)C1(C(C)=O)OC(=O)c2cnccc21` (centres undefined), the GI50 in the assay with IGROV-1, in the assay on SK-MEL-5, in the assay on SK-MEL-2, in the assay on CAKI-1, in the assay with SF-295 and in the assay with SK-MEL-28 was > 100 µM (inactive) in each case. Also, the GI50 in the assay with UO-31, in the assay on HL-60, with SNB-19, with HCC 2998, with OVCAR-8 and with SN12C was > 100 µM (inactive) throughout. Also, the GI50 in the assay with OVCAR-5 was > 100 µM (inactive); with Malme-3M, > 100 µM (inactive); with HT-29 it was > 100 µM (inactive); in the assay with HCT-15, more than 100 µM; with RXF 393, > 100 µM (inactive); in the assay on OVCAR-3 it was > 100 µM (inactive).
Consider `COP(=O)(OC)C(Cc1c[nH]c2ccccc12)NC(=O)OCc1ccccc1` (centres undefined), for which the GI50 with IGROV-1, with SK-MEL-5, in the assay with SK-MEL-2, in the assay on CAKI-1, with SF-295 and in the assay on SK-MEL-28 was > 100 µM (inactive) throughout. Further, the GI50 in the assay with UO-31, in the assay on HL-60, in the assay on HOP-62, in the assay on SNB-19, with HCC 2998 and in the assay on OVCAR-8 was > 100 µM (inactive) in each case. Also, the GI50 was > 100 µM (inactive) in the assay with SN12C; > 100 µM (inactive) with OVCAR-5; > 100 µM (inactive) with HT-29; more than 100 µM in the assay with HCT-15; 91 µM (inactive) in the assay on OVCAR-4; 40.5 µM (inactive) in the assay with OVCAR-3.
On to `COc1ccc(-c2c3c(nc4[nH]c(=S)[nH]c(=S)c24)CCCC3)cc1OC`, for which the GI50 was 29.9 µM (inactive) in the assay with IGROV-1; 16.6 µM (inactive) in the assay with SK-MEL-5; 34.7 µM (inactive) with CAKI-1; 14.7 µM (inactive) in the assay with SF-295; 24.2 µM (inactive) with SK-MEL-28; 14.6 µM (inactive) in the assay with UO-31. Also, the GI50 was 24.7 µM (inactive) with HL-60; 19.6 µM (inactive) with HOP-62; 34.3 µM (inactive) with SNB-19; 23.9 µM (inactive) in the assay with OVCAR-8; 13.5 µM (inactive) in the assay with SN12C; 28.8 µM (inactive) with OVCAR-5. For the same compound, the GI50 in the assay with Malme-3M is 29 µM (inactive); in the assay with HT-29, 22.1 µM (inactive); in the assay on HCT-15, 30.1 µM; with OVCAR-4, 36.6 µM (inactive); with RXF 393, 11.9 µM (inactive); in the assay on OVCAR-3 it was 52.1 µM (inactive).
On to `Cc1cc(O)nc(NN2C(Cl)C(=O)C2c2ccco2)n1` (centres undefined), for which the GI50 is 27 µM (inactive) in the assay on IGROV-1; 41.7 µM (inactive) with SK-MEL-5; 27.6 µM (inactive) in the assay with SK-MEL-2; > 10 µM (inactive) with SK-MEL-28; 23.1 µM (inactive) with UO-31; 15.3 µM (inactive) in the assay with HL-60. For the same compound, the GI50 is 32.6 µM (inactive) in the assay on HOP-62; 32 µM (inactive) with SNB-19; 60 µM (inactive) with HCC 2998; 46.5 µM (inactive) in the assay with OVCAR-8; 24.2 µM (inactive) with SN12C; > 100 µM (inactive) with OVCAR-5. The GI50 with HT-29 was 34 µM (inactive); in the assay on HCT-15, 31.6 µM; in the assay with OVCAR-4, 19.7 µM (inactive); in the assay on RXF 393, 13 µM (inactive); with OVCAR-3 it was 15.2 µM (inactive).
For `Oc1cc2cc(O)nc(O)c2c(O)n1`, the GI50 in the assay on IGROV-1, with SK-MEL-5, in the assay with CAKI-1, in the assay with SF-295, in the assay with UO-31 and in the assay on HL-60 was > 100 µM (inactive) each time. The GI50 in the assay with HOP-62, in the assay with SNB-19, in the assay on SN12C, in the assay with OVCAR-5, in the assay on Malme-3M and in the assay with HT-29 was > 100 µM (inactive) each time. The GI50 in the assay with HCT-15 was more than 100 µM; with OVCAR-4 it was > 100 µM (inactive); with RXF 393, > 100 µM (inactive); with OVCAR-3 it was > 100 µM (inactive).
Turning to `COc1cc(CNc2nc3c(NC(C)=O)cc(C(F)(F)F)cc3nc2-c2ccccc2)cc(OC)c1OC`, the GI50 with IGROV-1, with SK-MEL-5, in the assay with SK-MEL-2, in the assay with CAKI-1, in the assay with SF-295 and with SK-MEL-28 was > 100 µM (inactive) each time. In addition, the GI50 with UO-31, with HOP-62, in the assay on SNB-19, in the assay with HCC 2998, with OVCAR-8 and in the assay with SN12C was > 100 µM (inactive) each time. For the same compound, the GI50 is > 100 µM (inactive) with OVCAR-5; 19.6 µM (inactive) with Malme-3M; more than 100 µM with HCT-15; 89.5 µM (inactive) in the assay on OVCAR-4; 90.4 µM (inactive) in the assay with RXF 393; > 100 µM (inactive) in the assay on OVCAR-3.
As for `CC(=O)Nc1ccc(C(=O)N2N=C(C)/C(=C/c3ccc(O)cc3)C2=O)cc1`, the GI50 in the assay on SK-MEL-5, with SK-MEL-2, in the assay with CAKI-1, in the assay on SF-295, with SK-MEL-28 and in the assay on UO-31 was > 100 µM (inactive) throughout. Also, the GI50 in the assay on HL-60, in the assay on HOP-62, in the assay with SNB-19, with HCC 2998, in the assay on OVCAR-8 and in the assay with SN12C was > 100 µM (inactive) throughout. For the same compound, the GI50 in the assay on OVCAR-5 was > 100 µM (inactive); in the assay on Malme-3M it was > 100 µM (inactive); in the assay with HT-29, > 100 µM (inactive); with HCT-15, more than 100 µM; with OVCAR-4, > 100 µM (inactive); with OVCAR-3, > 100 µM (inactive).
In the case of `O=C(Nc1c(Cl)cc([N+](=O)[O-])cc1Cl)/C(=N\Nc1cccc(Cl)c1)c1c(O)c2ccccc2oc1=O`, the GI50 is > 100 µM (inactive) with IGROV-1; > 100 µM (inactive) in the assay with SK-MEL-5; > 100 µM (inactive) in the assay on SK-MEL-2; > 100 µM (inactive) in the assay with SF-295; > 100 µM (inactive) in the assay with SK-MEL-28; 23.6 µM (inactive) with UO-31. Also, the GI50 is 71.9 µM (inactive) with HL-60; 74 µM (inactive) in the assay with HOP-62; 87.1 µM (inactive) in the assay with SNB-19; > 100 µM (inactive) in the assay on HCC 2998; > 100 µM (inactive) in the assay with OVCAR-8; 34.2 µM (inactive) in the assay with SN12C. The GI50 in the assay on OVCAR-5 was 31.3 µM (inactive); in the assay with Malme-3M, > 100 µM (inactive); with HT-29 it was > 100 µM (inactive); in the assay on OVCAR-4, > 100 µM (inactive); in the assay with RXF 393, 66.2 µM (inactive); in the assay with OVCAR-3 it was > 100 µM (inactive).
